For 32 compounds, IC50 results are on record in patent US20230312587A1, “PTERIDINONE COMPOUNDS AND USES THEREOF” (Vertex Pharmaceutical Incorporated, priority 2018, published 2023).

Broadly, the IC50 is the midpoint of a concentration-inhibition curve.

This experiment deals with β-catenin-TCF-mediated reporter transcription activity in Colo 205 cells. Put plainly: Colo 205 reporter assay (TCF/LEF luciferase). It counts as cell-based. To be noted: Homo sapiens, COLO 205, 5 h, Colo 205 TCF/LEF luciferase reporter, five hours after addition of compound; read-out: TCF reporter Colo205 IC50. In outline:
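Luciferase signal from a TCF/LEF-driven reporter, stably integrated in Colo 205 colon cancer cells, was measured 5 h after compound addition.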
(In general: In a reporter assay the amount or activity of a reporter protein is the signal.)

With `CCN1C(=O)C(C)(C)N(CC)c2nc(NCc3cnn(Cc4ccc(F)cc4)c3)ncc21` [Compound 230, 5,8-diethyl-2-(((1-(4-fluorobenzyl)-1H-pyrazol-4-yl)methyl)amino)-7,7-dimethyl-7,8-dihydropteridin-6(5H)-one], the IC50 lay within 300 to 1000 nM. For the compound `CCN1C(=O)C(C)(C)N(CC)c2nc(NCc3cnn(Cc4cc(F)c(F)c(F)c4)c3)ncc21` [Compound 231, 5,8-diethyl-7,7-dimethyl-2-(((1-(3,4,5-trifluorobenzyl)-1H-pyrazol-4-yl)methyl)amino)-7,8-dihydropteridin-6(5H)-one], the IC50 was under 300 nM. Then `CCN1C(=O)C2(CC2)N(CC)c2nc(NCc3cnn(Cc4ccc(F)cc4)c3)ncc21` [Compound 232, 5′,8′-diethyl-2′-(((1-(4-fluorobenzyl)-1H-pyrazol-4-yl)methyl)amino)-5′,8′-dihydro-6′H-spiro[cyclopropane-1,7′-pteridin]-6′-one], with under 300 nM; and `CCN1C(=O)C2(CC2)N(CC)c2nc(NCc3cnn(Cc4cc(F)c(F)c(F)c4)c3)ncc21` [Compound 233, 5′,8′-diethyl-2′-(((1-(3,4,5-trifluorobenzyl)-1H-pyrazol-4-yl)methyl)amino)-5′,8′-dihydro-6′H-spiro[cyclopropane-1,7′-pteridin]-6′-one], with under 300 nM; and `CN1C(=O)C(C)(C)N(C)c2nc(NCc3cnn(Cc4cnccc4C(F)(F)F)c3)ncc21` [Compound 236, 5,7,7,8-Tetramethyl-2-(((1-((4-(trifluoromethyl)pyridin-3-yl)methyl)-1H-pyrazol-4-yl)methyl)amino)-7,8-dihydropteridin-6(5H)-one], with under 300 nM. Under `Cc1nc(NCc2cnn(Cc3ccc(C(F)(F)F)nc3)c2)nc2c1NC(=O)C(C)(C)N2C` [Compound 238, 4,7,7,8-Tetramethyl-2-(((1-((6-(trifluoromethyl)pyridin-3-yl)methyl)-1H-pyrazol-4-yl)methyl)amino)-7,8-dihydropteridin-6(5H)-one] stands under 300 nM; under `Cc1nc(NCc2cnn(Cc3ccc(C(F)(F)F)nc3)c2)nc2c1NC(=O)C1(CC1)N2C` [Compound 239, 4′,8′-dimethyl-2′-(((1-((6-(trifluoromethyl)pyridin-3-yl)methyl)-1H-pyrazol-4-yl)methyl)amino)-5′,8′-dihydro-6′H-spiro[cyclopropane-1,7′-pteridin]-6′-one], under 300 nM.

In the case of `C[C@H]1C(=O)Nc2cnc(N[C@H]3C[C@H](Oc4ccc(F)cc4)C3)nc2N1C` [Compound 240, (7S)-2-((trans-3-(4-fluorophenoxy)cyclobutyl)amino)-7,8-dimethyl-7,8-dihydropteridin-6(5H)-one], the IC50 was 1000 to 5000 nM. For the compound `C[C@H]1C(=O)Nc2cnc(N[C@H]3C[C@@H](Oc4ccc(F)cc4)C3)nc2N1C` [Compound 241, (7S)-2-((cis-3-(4-fluorophenoxy)cyclobutyl)amino)-7,8-dimethyl-7,8-dihydropteridin-6(5H)-one], the IC50 was at least 5000 nM. Under `Cc1nc(N[C@H]2C[C@H](Oc3ccc(F)cc3)C2)nc2c1NC(=O)[C@H](C)N2C` [Compound 242, (7S)-2-((trans 3-(4-fluorophenoxy)cyclobutyl)amino)-4,7,8-trimethyl-7,8-dihydropteridin-6(5H)-one] stands under 300 nM; under `Cc1nc(N[C@H]2C[C@@H](Oc3ccc(F)cc3)C2)nc2c1NC(=O)[C@H](C)N2C` [Compound 243, (7S)-2-((cis-3-(4-fluorophenoxy)cyclobutyl)amino)-4,7,8-trimethyl-7,8-dihydropteridin-6(5H)-one], 1000 to 5000 nM; under `Cc1nc(NC2CN(Cc3ccccc3)C2)nc2c1NC(=O)[C@H](C)N2C` [Compound 244, (7S)-2-((1-benzylazetidin-3-yl)amino)-4,7,8-trimethyl-7,8-dihydropteridin-6(5H)-one], at least 5000 nM.

Turning to `C[C@H]1C(=O)Nc2cnc(NC3CN(Cc4ccccc4)C3)nc2N1C` [Compound 245, (7S)-2-((1-benzylazetidin-3-yl)amino)-7,8-dimethyl-7,8-dihydropteridin-6(5H)-one], the IC50 is at least 5000 nM. `Cc1nc(N[C@H]2C[C@H](Oc3ccc(F)c(F)c3)C2)nc2c1NC(=O)[C@H](C)N2C` [Compound 248, (7S)-2-((trans 3-(3,4-difluorophenoxy)cyclobutyl)amino)-4,7,8-trimethyl-7,8-dihydropteridin-6(5H)-one]: the IC50 was under 300 nM. Regarding `C[C@H]1C(=O)Nc2cnc(N[C@H]3C[C@H](Oc4cc(F)c(F)c(F)c4)C3)nc2N1C` [Compound 249, (7S)-7,8-dimethyl-2-((trans-3-(3,4,5-trifluorophenoxy)cyclobutyl)amino)-7,8-dihydropteridin-6(5H)-one], the IC50 is under 300 nM. For `Cc1nc(N[C@H]2C[C@H](Oc3ccc(F)c(F)c3)C2)nc2c1N(C)C(=O)[C@H](C)N2C` [Compound 252, (7S)-2-((trans-3-(3,4-difluorophenoxy)cyclobutyl)amino)-4,5,7,8-tetramethyl-7,8-dihydropteridin-6(5H)-one], the IC50 is under 300 nM. For the compound `Cc1nc(N[C@H]2C[C@H](OCc3cc(F)c(F)c(F)c3)C2)nc2c1N(C)C(=O)[C@H](C)N2C` [Compound 255, (7S)-4,5,7,8-tetramethyl-2-((trans-3-((3,4,5-trifluorobenzyl)oxy)cyclobutyl)amino)-7,8-dihydropteridin-6(5H)-one], the IC50 was under 300 nM. As to `C[C@H]1C(=O)Nc2cnc(N[C@H]3C[C@H](OCc4cc(F)c(F)c(F)c4)C3)nc2N1C` [Compound 256, (7S)-7,8-dimethyl-2-((trans-3-((3,4,5-trifluorobenzyl)oxy)cyclobutyl)amino)-7,8-dihydropteridin-6(5H)-one], the IC50 is 300 to 1000 nM. Regarding `Cc1nc(N[C@H]2C[C@@H](COc3ccc(F)cc3)C2)nc2c1NC(=O)[C@H](C)N2C` [Compound 261, (7S)-2-((cis-3-((4-fluorophenoxy)methyl)cyclobutyl)amino)-4,7,8-trimethyl-7,8-dihydropteridin-6(5H)-one], the IC50 is under 300 nM. `Cc1nc(N[C@H]2C[C@H](Oc3cncc(F)c3)C2)nc2c1NC(=O)[C@H](C)N2C` [Compound 262, (7S)-2-((trans-3-((5-fluoropyridin-3-yl)oxy)cyclobutyl)amino)-4,7,8-trimethyl-7,8-dihydropteridin-6(5H)-one]: the IC50 fell in the range of 1000 to 5000 nM.

As for `Cc1nc(N[C@H]2C[C@@H](COc3cncc(F)c3)C2)nc2c1NC(=O)[C@H](C)N2C` [Compound 263, (7S)-2-((cis-3-(((5-fluoropyridin-3-yl)oxy)methyl)cyclobutyl)amino)-4,7,8-trimethyl-7,8-dihydropteridin-6(5H)-one], the concentration for half-maximal inhibition (IC50) lay within 300 to 1000 nM. Under `Cc1nc(N[C@H]2C[C@H](OCc3ccc(F)c(F)c3)C2)nc2c1NC(=O)[C@H](C)N2C` [Compound 264, (7S)-2-((trans-3-((3,4-difluorobenzyl)oxy)cyclobutyl)amino)-4,7,8-trimethyl-7,8-dihydropteridin-6(5H)-one] stands under 300 nM. Then `C[C@H]1C(=O)Nc2cnc(N[C@H]3C[C@H](OCc4ccc(F)c(F)c4)C3)nc2N1C` [Compound 265, (7S)-2-((trans-3-((3,4-difluorobenzyl)oxy)cyclobutyl)amino)-7,8-dimethyl-7,8-dihydropteridin-6(5H)-one], with 300 to 1000 nM.

Regarding `Cc1nc(N[C@H]2C[C@H](OCc3ccc(F)c(F)c3)C2)nc2c1N(C)C(=O)[C@H](C)N2C` [Compound 266, (7S)-2-((trans-3-((3,4-difluorobenzyl)oxy)-cyclobutyl)amino)-4,5,7,8-tetramethyl-7,8-dihydropteridin-6(5H)-one], the IC50 is 300 to 1000 nM. For the compound `Cc1nc(N[C@H]2C[C@@H](COc3ccc(F)nc3)C2)nc2c1NC(=O)[C@H](C)N2C` [Compound 270, (7S)-2-((cis-3-(((6-fluoropyridin-3-yl)oxy)methyl)cyclobutyl)amino)-4,7,8-trimethyl-7,8-dihydropteridin-6(5H)-one], the IC50 is 300 to 1000 nM. Regarding `Cc1nc(N[C@H]2C[C@@H](COc3ccc(F)c(F)c3)C2)nc2c1NC(=O)[C@H](C)N2C` [Compound 271, (7S)-2-((cis-3-((3,4-difluorophenoxy)methyl)cyclobutyl)amino)-4,7,8-trimethyl-7,8-dihydropteridin-6(5H)-one], the IC50 is under 300 nM.

Take `Cc1nc(N[C@H]2CC[C@H](Oc3cc(F)c(F)c(F)c3)C2)nc2c1N(C)C(=O)[C@H](C)N2C` [Compound 273, (S)-4,5,7,8-tetramethyl-2-(((1S,3S)-3-(3,4,5-trifluorophenoxy)cyclopentyl)amino)-7,8-dihydropteridin-6(5H)-one]: the IC50 was under 300 nM. Take `Cc1nc(N[C@H]2C[C@H](Oc3ncc(F)cn3)C2)nc2c1N(C)C(=O)[C@H](C)N2C` [Compound 274, (S)-2-((trans-3-((5-fluoropyrimidin-2-yl)oxy)cyclobutyl)amino)-4,5,7,8-tetramethyl-7,8-dihydropteridin-6(5H)-one]: the concentration for half-maximal inhibition (IC50) was at least 5000 nM.

With `Cc1nc(N[C@H]2C[C@H](Oc3ncc(F)cn3)C2)nc2c1NC(=O)[C@H](C)N2C` [Compound 276, (7S)-2-((trans-3-((5-fluoropyrimidin-2-yl)oxy)cyclobutyl)amino)-4,7,8-trimethyl-7,8-dihydropteridin-6(5H)-one], the IC50 is at least 5000 nM.

`Cc1nc(N[C@H]2C[C@@H](COc3ccc(F)cc3C#N)C2)nc2c1NC(=O)[C@H](C)N2C` [Compound 277, 5-fluoro-2-((cis-3-(((7S)-4,7,8-trimethyl-6-oxo-5,6,7,8-tetrahydropteridin-2-yl)amino)cyclobutyl)methoxy)benzonitrile]: the IC50 is under 300 nM. With `Cc1nc(NC2CC2COc2ccccc2)nc2c1NC(=O)[C@H](C)N2C` (stereo partly drawn) [Compound 278, (7S)-4,7,8-trimethyl-2-((2-(phenoxymethyl)cyclopropyl)-amino)-7,8-dihydropteridin-6(5H)-one], the IC50 was 1000 to 5000 nM. Take `Cc1nc(N[C@H]2C[C@@H](Cn3cc(F)cn3)C2)nc2c1NC(=O)[C@H](C)N2C` [Compound 279, (7S)-2-((cis-3-((4-fluoro-1H-pyrazol-1-yl)methyl)cyclobutyl)amino)-4,7,8-trimethyl-7,8-dihydropteridin-6(5H)-one]: the IC50 was 300 to 1000 nM.
